Results taken from patent publication US20100021936A1, “Sensor for Spores” (priority 2007, published 2010).

How the values were obtained:
[1] = test system: Bacillus megaterium QM B1551 spores; format: cell-based
[2] = test system: CwlJ knock-out strain of Bacillus megaterium; format: cell-based
[3] = test system: antibody-immobilised spores; format: cell-based
[4] = test system: B. megaterium QM B1551 "receptorless" spore; format: cell-based, Bacillus megaterium

Compound | concentration of Ca-DPA at which spores germinate [1] [mM] | germination in response to exogenous Ca-DPA [2] | germination response by micrographs [3] | germination response of receptorless spores [4]
O=C(O)c1cccc(C(=O)O)n1 [Ca-DPA, dipicolinic acid] | ~30 | does not germinate | – | –
C[C@H](N)C(=O)O [L-alanine] | – | – | transition from phase bright spores to phase dark | lost the ability to respond
